Reference: patent US9708251B2, “Unsaturated fatty alcohol alkoxylates from natural oil metathesis” (Stepan Company, priority 2012, dated 2017)
Values belong to the compound of their own block, whether it stands above or below them.

Legend:
Assay type in all cases: physicochemical
[1] = Fabric cleaning: compaction (surfactant blends)
Method: The sample is formulated into surfactant blends having high actives content. Two experimental derivatives, A12-13 and A12-21, are evaluated.
In a first experiment, a three-component surfactant blend is prepared. This blend comprises the experimental sample (30 wt. %), a linear alkylbenzene sulfonate (15 wt. %), and an alkyl ether sulfate (15 wt. %). The appearance and viscosity of the blend are compared with those of similar three-component blends in which a standard alcohol ethoxylate replaces the experimental sample.
In a second experiment, a two-component surfactant blend is prepared in which the experimental sample and a linear alkylbenzene sulfonate are combined at a 1:1 actives ratio, beginning with a high actives blend having a cloudy appearance. Water is gradually added and mixed with the surfactant blend at room temperature. […]

[2] = Emulsion stability testing of nonionic emulsifiers, aromatic solvent series; parameters: key to 24 h separation, appearance / 1 h separation, appearance / 1 h separation, amount: C = creamy; CO = creamy oil; O = oil; GC = gritty cream; NS = no separation; OC = oily cream; key to Spon. (spontaneity): G = good; F = fair; P = poor
[3] = Emulsion stability testing of nonionic emulsifiers, Hallcomid solvent series; parameters: key to 24 h separation, appearance / 1 h separation, appearance / 1 h separation, amount: C = creamy; CO = creamy oil; O = oil; GC = gritty cream; NS = no separation; OC = oily cream; key to Spon. (spontaneity): G = good; F = fair; P = poor
[4] = Agrichemical solvent analysis: active solubility; details: room temperature
Method: Solvency strength of potential agrichemical solvents is evaluated by identifying the solubility level of three standard pesticides in the solvent by weight percent: 2,4-D acid, imidacloprid, and tebuconazole. […] The active material is also accurately weighed before addition. Initial amounts of active material are approximately: 2,4-D: 0.3 g; imidacloprid: 0.02 g; tebuconazole: 0.3 g. Solvent and pesticide active are combined, allowed to mix for 1 h at room temperature, and then inspected for the presence of undissolved active material. Additional active material is added in appropriately small increments until it no longer dissolves completely. This mixture is then stirred for 24 h at room temperature, and if the active has completely dissolved, additional active ingredient is added and the mixture is stirred another 24 h at room temperature. The percent solubility is recorded, and performance is compared with that of a standard agricultural solvent.

[5] = Surfactant phase behavior study (cross-polarized microscopy); details: room temperature
How it was run: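 Saturated analogs serve as comparators. Water dilutions of the product, stepped at 2-4% near transitions, equilibrated between slide and cover glass and assigned phase by cross-polarized microscopy texture at 100-400×, 20-22° C. Boundaries lie within ±5% actives; some samples checked by viscosity at 25° C.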

[6] = Solubility evaluation: enhanced oil recovery (EOR); details: for Comments (appearance) / Soluble?: 1 wt. % sample, 1% sodium chloride brine
Method: Samples are prepared in a 10% stock solution and evaluated at 1 wt. % with a brine concentration of 1% sodium chloride. Replicate experiments are performed at each temperature with each sample.

[7] = Emulsion stability testing of nonionic emulsifiers, Hallcomid solvent series; parameters: key: C = creamy; CO = creamy oil; O = oil; GC = gritty cream; NS = no separation; OC = oily cream; details: Bifenthrin 240 g/L in Hallcomid M-8-10, 34 ppm water
[8] = as above; parameters: key: C = creamy; CO = creamy oil; O = oil; GC = gritty cream; NS = no separation; OC = oily cream; Tr. = trace; details: Bifenthrin 240 g/L in Hallcomid M-8-10, 34 ppm water
Method: Nonionic samples contain a low amount of water (<1%) and are prepared as emulsifiable concentrates with three pesticides using two different solvent systems. In the aromatic solvent series, the nonionic sample replaces Toximul® 8240 (castor oil ethoxylate, 36 POE, Stepan), and in the Hallcomid™ (N,N-dimethylcaprylamide/N,N-dimethylcapramide, Stepan) solvent series, the nonionic sample replaces Ninex® MT-630F.
Hallcomid Solvent Series.
Sample preparation: The surfactants are combined and stirred until homogeneous, with the nonionic sample melted if needed prior to combination. Controls 1-3 are made by using Ninex MT-630F in the amounts indicated instead of the nonionic sample.
Emulsion Stability Testing
A Mohr pipette is used to feed pesticide/surfactant concentrates to each cylinder.

[9] = three-component blend: sample 30 wt. %, linear alkylbenzene sulfonate 15 wt. %, alkyl ether sulfate 15 wt. %
[10] = 2,4-D ester 480 g/L in Exxsol D-110, 34 ppm water
[11] = 2,4-D ester 480 g/L in Exxsol D-110, 1000 ppm water
[12] = Bifenthrin 240 g/L in Aromatic 100, 34 ppm water
[13] = Bifenthrin 240 g/L in Aromatic 100, 1000 ppm water
[14] = Tebuconazole 360 g/L in N-methyl-2-pyrrolidone, 34 ppm water
[15] = Tebuconazole 360 g/L in N-methyl-2-pyrrolidone, 1000 ppm water
[16] = 2,4-D diester 480 g/L in Hallcomid M-8-10, 34 ppm water
[17] = 2,4-D diester 480 g/L in Hallcomid M-8-10, 1000 ppm water
[18] = Bifenthrin 240 g/L in Hallcomid M-8-10, 34 ppm water
[19] = Bifenthrin 240 g/L in Hallcomid M-8-10, 1000 ppm water
[20] = Tebuconazole 360 g/L in Hallcomid M-8-10, 34 ppm water
[21] = Tebuconazole 360 g/L in Hallcomid M-8-10, 1000 ppm water

Appearance, 25° C. [1, 9]: cloudy, flowable gel | Viscosity [1, 9]: 5600 cPs | % Actives at which blend is clear and homogeneous at 25° C. ([1]; two-component blend with linear alkylbenzene sulfonate, 1:1 actives ratio): 51 % Actives
SMILES: CCC=CCCCCCCCCOCCOCCOCCOCCOCCOCCOCCOCCOCCO (mixture of isomers) [A12-21]

1 h separation, amount [2, 10]: 4 mL | 1 h separation, appearance [2, 10]: CO | 24 h separation, amount [2, 10]: 1 O, 4.5 CO | Spon. (spontaneity) [2, 10]: P | 1 h separation, amount [2, 11]: 4 mL | 1 h separation, appearance [2, 11]: O | 24 h separation, amount [2, 11]: 4 mL | 24 h separation, appearance [2, 11]: O | Spon. (spontaneity) [2, 11]: P | 1 h separation, amount [2, 12]: 7 mL | 1 h separation, appearance [2, 12]: CO | 24 h separation, amount [2, 12]: 6.5 mL | 24 h separation, appearance [2, 12]: CO | Spon. (spontaneity) [2, 12]: P | 1 h separation, amount [2, 13]: 6 mL | 1 h separation, appearance [2, 13]: O | 24 h separation, amount [2, 13]: 5 mL | 24 h separation, appearance [2, 13]: O | Spon. (spontaneity) [2, 13]: P | 1 h separation, amount [2, 14]: 2 mL | 1 h separation, appearance [2, 14]: GC | 24 h separation, amount [2, 14]: 3 mL | 24 h separation, appearance [2, 14]: GC | Spon. (spontaneity) [2, 14]: P | 1 h separation, amount [2, 15]: 2.5 mL | 1 h separation, appearance [2, 15]: GC | 24 h separation, amount [2, 15]: 3 mL | 24 h separation, appearance [2, 15]: GC | Spon. (spontaneity) [2, 15]: P | 1 h separation, amount [3, 16]: 5.6 mL | 1 h separation, appearance [3, 16]: C | 24 h separation, amount [3, 16]: 10 mL | 24 h separation, appearance [3, 16]: C | Spon. (spontaneity) [3, 16]: F | 1 h separation, amount [3, 17]: 6 mL | 1 h separation, appearance [3, 17]: C | 24 h separation, amount [3, 17]: 7.5 mL | 24 h separation, appearance [3, 17]: C | Spon. (spontaneity) [3, 17]: F | 1 h separation, amount [3, 18]: NS | Spon. (spontaneity) [3, 18]: F | 1 h separation, amount [3, 19]: 10 mL | 1 h separation, appearance [3, 19]: CO | 24 h separation, amount [3, 19]: 3 O, 3 CO | Spon. (spontaneity) [3, 19]: P | 1 h separation, amount [3, 20]: 2.5 mL | 1 h separation, appearance [3, 20]: C | 24 h separation, amount [3, 20]: 5 mL | 24 h separation, appearance [3, 20]: C | Spon. (spontaneity) [3, 20]: F | 1 h separation, amount [3, 21]: 3 mL | 1 h separation, appearance [3, 21]: C | 24 h separation, amount [3, 21]: 5 mL | 24 h separation, appearance [3, 21]: C | Spon. (spontaneity) [3, 21]: F | solubility of 2,4-D Acid in the solvent [4]: 29.5 weight percent | solubility of Imidacloprid in the solvent [4]: 2.9 weight percent | solubility of Tebuconazole in the solvent [4]: 13.5 weight percent | combined isotropic phases (clear and opaque), share of the total [5]: about 50% | Isotropic Clear phase region ([5]; in deionized water): 70-100 % Actives Level | Isotropic Opaque phase region ([5]; in deionized water): 0-20 % Actives Level | Lamellar phase region ([5]; in deionized water): 20-70 % Actives Level | Comments (appearance) ([6]; 20.7 °C): white, opaque | Soluble? ([6]; 20.7 °C): no | Comments (appearance) ([6]; 51.5 °C): white, opaque | Soluble? ([6]; 51.5 °C): no | Comments (appearance) ([6]; 56.1 °C): white, hazy | Soluble? ([6]; 56.1 °C): no | 24 h separation, amount [7]: NS
SMILES: C=CCCCCCCCCOCCOCCOCCO [A10-7]
Overall performance (EOR solubility) ([6]; versus control fatty alcohol ethoxylate): Overall performance of A10-7: Equal to control

SMILES: CCC=CCCCCCCCCOCCOCCOCCOCCOCCO (mixture of isomers) [A12-10]
1 h separation, amount [2, 10]: 0.7 mL | 1 h separation, appearance [2, 10]: C | 24 h separation, amount [2, 10]: 3.9 mL | 24 h separation, appearance [2, 10]: C | Spon. (spontaneity) [2, 10]: F | 1 h separation, amount [2, 11]: 4.6 mL | 1 h separation, appearance [2, 11]: CO | 24 h separation, amount [2, 11]: 0.75 O, 4.3 CO | Spon. (spontaneity) [2, 11]: P | 1 h separation, amount [2, 12]: 2.3 mL | 1 h separation, appearance [2, 12]: C | 24 h separation, amount [2, 12]: 9 mL | 24 h separation, appearance [2, 12]: C | Spon. (spontaneity) [2, 12]: F | Spon. (spontaneity) [2, 13]: F | 1 h separation, amount [2, 14]: 2.6 mL | 1 h separation, appearance [2, 14]: C | 24 h separation, amount [2, 14]: 4 mL | 24 h separation, appearance [2, 14]: GC | Spon. (spontaneity) [2, 14]: P | 1 h separation, amount [2, 15]: 2.1 mL | 1 h separation, appearance [2, 15]: C | 24 h separation, amount [2, 15]: 3.2 mL | 24 h separation, appearance [2, 15]: GC | Spon. (spontaneity) [2, 15]: P | 1 h separation, amount [3, 16]: 5.3 mL | 1 h separation, appearance [3, 16]: C | 24 h separation, amount [3, 16]: 9.2 mL | 24 h separation, appearance [3, 16]: C | Spon. (spontaneity) [3, 16]: P | 1 h separation, amount [3, 17]: 6.8 mL | 1 h separation, appearance [3, 17]: C | 24 h separation, amount [3, 17]: 8.7 mL | 24 h separation, appearance [3, 17]: C | Spon. (spontaneity) [3, 17]: F | 1 h separation, amount [3, 18]: NS | 24 h separation, appearance [3, 18]: C | Spon. (spontaneity) [3, 18]: G | 1 h separation, amount [3, 19]: 6.1 mL | 1 h separation, appearance [3, 19]: O | 24 h separation, amount [3, 19]: 3 O, 2 CO | Spon. (spontaneity) [3, 19]: F | 1 h separation, amount [3, 20]: 2.1 mL | 1 h separation, appearance [3, 20]: C | 24 h separation, amount [3, 20]: 5.1 mL | 24 h separation, appearance [3, 20]: C | Spon. (spontaneity) [3, 20]: F | 1 h separation, amount [3, 21]: 2 mL | 1 h separation, appearance [3, 21]: C | 24 h separation, amount [3, 21]: 4.2 mL | 24 h separation, appearance [3, 21]: C | Spon. (spontaneity) [3, 21]: F | Lamellar phase region ([5]; in deionized water): 50-80 % Actives Level | Lamellar/Isotropic phase region ([5]; in deionized water): 35-50 % Actives Level | 24 h separation, amount [8]: Tr.
